The test concerns the target T1, memapsin 2 (Homo sapiens, UniProt P56817).
T1 construct: pET-11 vector-derived residues 1-15 of promemapsin 2-T1 (N, cleaved yes); made in house; host or cells: E. coli
The test can be described thus: Inhibition of memapsin 2 proteolytic activity, fluorogenic substrate FS-2. The format is biochemical. Particulars: for Ki / Ki app: memapsin 2; for Vi/Vo: ratio of initial cleavage velocities of FS-2 with/without compound, enzyme and inhibitor concentrations equal (e.g., about 80 nM, 100 nM). The protocol: Ki is the inhibition equilibrium constant which indicates the ability of compounds to inhibit the β-secretase activity of memapsin 2 and memapsin 1. […] The K1 value is independent of the substrate, and converted from Ki apparent.
The Vi/Vo values depicted in Table 1 were determined at conditions under which the enzyme and inhibitor concentrations were equal (e.g., about 80 nM, 100 nM).
The relationship of Ki (independent of substrate concentration) to Kiapp is a function of substrate concentration in the assay and the Km for cleavage of the substrate by either memapsin 1 or memapsin 2 by the relationship:
The spontaneously activated memapsin 2 was employed in assays to assess the inhibition of memapsin 2 relative to memapsin 1 by compounds of the invention and in some crystallization studies.
An aliquot of the inhibitor of known concentration in DMSO was diluted into 1.8 ml 0.1 M NaOAc, pH 4.0. DMSO and added to a final concentration of 10% (v/v), and memapsin 2 (final concentration of 80 nM), followed by a 20 minute equilibration at 37° C. Compounds were evaluated for the ability to inhibit memapsin 1 and memapsin 2 at concentrations between about 10 nM and about 10 μm of inhibitor.

[1] abbreviates: independent of substrate, converted from Ki apparent, read-out: Ki.
Where [2] appears, read: apparent Ki in presence of substrate FS-2, read-out: Ki app.
The mark [3] stands for this setting: apparent Ki in presence of substrate FS-2.
Setting [4] is: independent of substrate, converted from Ki apparent.

The structures appear in SMILES notation. Read-outs that look alike come from different tables or passages of the source.

T1 sequence (P56817 41-454 limits assumed): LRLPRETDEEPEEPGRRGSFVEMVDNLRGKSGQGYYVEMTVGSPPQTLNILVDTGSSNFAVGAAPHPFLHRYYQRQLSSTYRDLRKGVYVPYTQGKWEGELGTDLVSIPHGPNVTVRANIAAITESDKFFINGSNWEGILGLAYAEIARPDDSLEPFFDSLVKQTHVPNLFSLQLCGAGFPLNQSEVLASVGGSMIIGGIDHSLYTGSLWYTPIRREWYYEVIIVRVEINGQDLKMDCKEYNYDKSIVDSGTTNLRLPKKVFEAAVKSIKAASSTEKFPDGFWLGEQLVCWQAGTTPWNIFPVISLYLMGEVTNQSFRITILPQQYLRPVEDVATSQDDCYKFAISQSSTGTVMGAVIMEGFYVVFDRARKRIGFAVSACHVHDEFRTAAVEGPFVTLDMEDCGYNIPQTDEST

For the compound `CSCC[C@H](NC(=O)[C@@H](NC(=O)OC(C)(C)C)C(C)C)C(=O)N[C@@H](CC(C)C)[C@@H](O)C[C@@H](C)C(=O)N[C@H]1c2ccccc2C[C@H]1O` [MMI-046], the Ki under setting [1] came to 93.7 µM.

For the compound `CC(C)C[C@H](NC(=O)[C@H](CCS(C)(=O)=O)NC(=O)[C@@H](NC(=O)OC(C)(C)C)C(C)C)[C@@H](O)C[C@@H](C)C(=O)N[C@H]1c2ccccc2C[C@H]1O` [MMI-047], under setting [1], the Ki came to 69.1 µM. `CSCC[C@H](NS(=O)(=O)c1ccc(CO)cc1)C(=O)N[C@@H](Cc1ccccc1)[C@@H](O)C[C@@H](C)C(=O)N[C@H](C(=O)NCc1ccccc1)C(C)C` [MMI-048]: the Ki is 54.8 µM under setting [2] and 34.2 µM under setting [1]. With `CC(C)C[C@H](NC(=O)[C@H](CCO)NC(=O)c1cnc2ccccc2c1)[C@@H](O)C[C@@H](C)C(=O)N[C@H](C(=O)N[C@H]1c2ccccc2C[C@H]1O)C(C)C` [MMI-049], under setting [1], the Ki stood at 124 µM.

As to `CCC(C)[C@H](NC(=O)[C@H](C)C[C@H](O)[C@H](CC(C)C)NC(=O)[C@H](CCO)NC(=O)c1cnc2ccccc2c1)C(=O)N[C@H]1c2ccccc2C[C@H]1O` (stereo partly drawn) [MMI-050], the Ki under setting [1] was 91.2 µM. With `CSCC[C@H](NC(=O)[C@@H](NC(=O)OC(C)(C)C)C(C)C)C(=O)N[C@@H](CC(C)C)[C@@H](O)C[C@@H](C)C(=O)N[C@H]1CCCC[C@@H]1O` [MMI-051], the Ki app entry under setting [3] is “N.I”. Also, the Ki result under setting [4] is on record as “N.I”. For the compound `CSCC[C@H](NC(=O)[C@@H](NC(=O)OC(C)(C)C)C(C)C)C(=O)N[C@@H](CC(C)C)[C@@H](O)C[C@@H](C)C(=O)N[C@@H]1c2ccccc2C[C@@H]1O` [MMI-053], the Ki app result under setting [3] is on record as “N.I”. In addition, under setting [4], the Ki entry is “N.I”. In the case of `CC(C)C[C@H](NC(=O)[C@H](CCS(C)(=O)=O)NC(=O)[C@@H](NC(=O)OC(C)(C)C)C(C)C)[C@@H](O)C[C@@H](C)C(=O)N[C@@H]1c2ccccc2C[C@@H]1O` [MMI-054], the Ki under setting [1] was found to be 293 µM.

Consider `CSCC[C@H](NC(=O)[C@@H](NC(=O)OC(C)(C)C)C(C)C)C(=O)N[C@@H](CC(C)C)[C@@H](O)C[C@@H](C)C(=O)N[C@H]1CCCC[C@@H]1O` [MMI-055], for which the Ki under setting [1] turned out to be 394 µM.

For the compound `CSCC[C@H](NC(=O)[C@@H](NC(=O)OC(C)(C)C)C(C)C)C(=O)N[C@@H](CC(C)C)[C@@H](O)C[C@@H](C)C(=O)N[C@@H]1CCCC[C@@H]1O` [MMI-057], the Ki was 73.3 µM under setting [2] and 45.8 µM under setting [1]. In the same order, the values of `CSCC[C@H](NC(=O)[C@@H](NC(=O)OC(C)(C)C)C(C)C)C(=O)N[C@@H](CC(C)C)[C@@H](O)C[C@@H](C)C(=O)N[C@@H]1CCCC[C@@H]1O` [MMI-059] are 66.3 µM and 41.4 µM. For the compound `CSCC[C@H](NC(=O)[C@@H](NC(=O)OC(C)(C)C)C(C)C)C(=O)N[C@@H](CC(C)C)[C@@H](O)CN(C)C(=O)[C@H](NC(=O)OCc1ccccc1)C(C)C` [MMI-061], under setting [1], the Ki amounted to 9660 µM.

Regarding `CC(C)C[C@H](NC(=O)[C@@H](NC(=O)OC(C)(C)C)C(C)C)[C@@H](O)CN(C)C(=O)[C@H](NC(=O)OCc1ccccc1)C(C)C` [MMI-062], the Ki app entry under setting [3] is given as “N.I”. Further, the Ki entry under setting [4] is reported as “N.I”.

Regarding `CSCC[C@H](NC(=O)[C@@H](NC(=O)OC(C)(C)C)C(C)C)C(=O)N[C@@H](CC(C)C)[C@@H](O)C[C@@H](C)C(=O)N[C@@H](CC(C)C)C(=O)NCCc1c[nH]c2ccccc12` [MMI-065], the Ki under setting [2] is 0.0687 µM and the Ki under setting [1] turned out to be 0.0429 µM. In the same order, the values of `CSCC[C@H](NC(=O)[C@@H](NC(=O)OC(C)(C)C)C(C)C)C(=O)N[C@@H](CC(C)C)[C@@H](O)C[C@@H](C)C(=O)N[C@@H](CC(C)C)C(=O)NC1Cc2ccccc2C1` [MMI-066] are 0.0212 µM and 0.0132 µM. The corresponding values for `CC(C)C[C@H](NC(=O)[C@H](C)C[C@H](O)[C@H](CC(C)C)NC(=O)[C@H](CCS(C)(=O)=O)NC(=O)[C@@H](NC(=O)OC(C)(C)C)C(C)C)C(=O)NC1Cc2ccccc2C1` [MMI-067] are 0.0735 µM and 0.0459 µM. With `CSCC[C@H](NC(=O)[C@H](CC(C)C)NC(=O)OC(C)(C)C)C(=O)N[C@@H](CC(C)C)[C@@H](O)C[C@@H](C)C(=O)N[C@H](C(=O)NCc1ccccc1)C(C)C` [MMI-070], the Ki by setting is: under setting [2], 0.0049 µM; under setting [1], 0.00306 µM. Turning to `CC(C)C[C@H](NC(=O)OC(C)(C)C)C(=O)N[C@@H](CCS(C)(=O)=O)C(=O)N[C@@H](CC(C)C)[C@@H](O)C[C@@H](C)C(=O)N[C@H](C(=O)NCc1ccccc1)C(C)C` [MMI-071], the Ki reads like this: under setting [2], 0.0019 µM; under setting [1], 0.00118 µM. As for `CSCC[C@H](NC(=O)[C@@H](NC(=O)OC(C)(C)C)C(C)C)C(=O)N[C@@H](CC(C)C)[C@@H](O)C[C@@H](C)C(=O)N[C@@H](C(=O)NCc1ccccc1)[C@@H](C)O` [MMI-072], the Vi/Vo worked out at 0.9. Consider `CSCCC(NC(=O)[C@@H](NC(=O)OC(C)(C)C)C(C)C)C(=O)N[C@@H](CC(C)C)[C@@H](O)C[C@@H](C)C(=O)N[C@H](C(=O)NCc1ccccc1)[C@H](C)O` (stereo partly drawn) [MMI-081], for which the Vi/Vo amounted to 0.87. Still for that read-out and setting: then `CC(C)C[C@H](NC(=O)C(CCS(C)(=O)=O)NC(=O)[C@@H](NC(=O)OC(C)(C)C)C(C)C)[C@@H](O)C[C@@H](C)C(=O)N[C@H](C(=O)NCc1ccccc1)[C@H](C)O` (stereo partly drawn) [MMI-082], with 0.72.

`CSCC[C@H](NC(=O)[C@@H](NC(=O)OC(C)(C)C)C(C)C)C(=O)N[C@@H](CC(C)C)[C@@H](O)C[C@@H](C)C(=O)N[C@H](C(=O)NCc1cccnc1)C(C)C` [MMI-087]: the Ki under setting [2] was determined as 0.905 µM and the Ki under setting [1] came out at 0.565 µM.

Regarding `CC(C)C[C@H](NC(=O)[C@H](CCS(C)(=O)=O)NC(=O)[C@@H](NC(=O)OC(C)(C)C)C(C)C)[C@@H](O)C[C@@H](C)C(=O)N[C@H](C(=O)NCc1cccnc1)C(C)C` [MMI-088], the Ki under setting [2] was found to be 1.03 µM and the Ki under setting [1] was 0.646 µM. With `CSCC[C@H](NC(=O)[C@H](CC(C)C)NS(=O)(=O)c1ccc(C)cc1)C(=O)N[C@@H](CC(C)C)[C@@H](O)C[C@@H](C)C(=O)N[C@H](C(=O)NCc1ccccc1)C(C)C` [MMI-089], the Ki reads like this: under setting [2], 0.315 µM; under setting [1], 0.197 µM.

Take `Cc1ccc(S(=O)(=O)N[C@@H](CC(C)C)C(=O)N[C@@H](CCS(C)(=O)=O)C(=O)N[C@@H](CC(C)C)[C@@H](O)C[C@@H](C)C(=O)N[C@H](C(=O)NCc2ccccc2)C(C)C)cc1` [MMI-090]: the Ki under setting [2] was 0.311 µM and the Ki under setting [1] was 0.194 µM.

Consider `CSCC[C@H](NC(=O)[C@H](CC(C)C)NS(C)(=O)=O)C(=O)N[C@@H](CC(C)C)[C@@H](O)C[C@@H](C)C(=O)N[C@H](C(=O)NCc1ccccc1)C(C)C` [MMI-093], for which the Ki is, setting by setting: under setting [2], 0.0119 µM; under setting [1], 0.00745 µM. In the case of `CSCC[C@H](NC(=O)[C@H](CC(C)C)NC(C)=O)C(=O)N[C@@H](CC(C)C)[C@@H](O)C[C@@H](C)C(=O)N[C@H](C(=O)NCc1ccccc1)C(C)C` [MMI-094], the Ki is, setting by setting: under setting [2], 0.0641 µM; under setting [1], 0.0401 µM. The corresponding values for `CSCCC(NC(=O)[C@H](CC(C)C)NC(=O)OC(C)(C)C)C(=O)N[C@@H](CC(C)C)[C@@H](O)C[C@@H](C)C(=O)N[C@@H](CC(C)C)C(=O)NCc1ccccc1` (stereo partly drawn) [MMI-097] are 0.0828 µM and 0.0517 µM. Take `CC[C@H](C)[C@H](NC(=O)[C@H](C)C[C@H](O)[C@H](CC(C)C)NC(=O)C(CCSC)NC(=O)[C@H](CC(C)C)NC(=O)OC(C)(C)C)C(=O)NCc1ccccc1` (stereo partly drawn) [MMI-099]: the Ki was 0.29 µM under setting [2] and 0.182 µM under setting [1]. In the same order, the values of `CSCC[C@@H](NC(=O)[C@H](CC(C)C)NC(=O)OC(C)(C)C)C(=O)N[C@@H](CC(C)C)[C@@H](O)C[C@@H](C)C(=O)N[C@H](C(=O)NCc1ccccc1)C(C)C` [MMI-104] are 0.831 µM and 0.52 µM. In the same order, the values of `CC(C)C[C@H](NC(=O)OC(C)(C)C)C(=O)N[C@H](CCS(C)(=O)=O)C(=O)N[C@@H](CC(C)C)[C@@H](O)C[C@@H](C)C(=O)N[C@H](C(=O)NCc1ccccc1)C(C)C` [MMI-105] are 0.201 µM and 0.125 µM. `CSCC[C@H](NC(=O)[C@H](CC(C)C)NC(=O)OC(C)(C)C)C(=O)N[C@@H](CC(C)C)[C@H](O)C[C@@H](C)C(=O)N[C@H](C(=O)NCc1ccccc1)C(C)C` [MMI-113]: the Ki reads like this: under setting [2], 0.0999 µM; under setting [1], 0.0621 µM. Consider `CSCC[C@@H](COC(=O)N[C@@H](CC(C)C)[C@@H](O)C[C@@H](C)C(=O)N[C@H](C(=O)NCc1ccccc1)C(C)C)NC(=O)[C@@H](NC(=O)OC(C)(C)C)C(C)C` [MMI-114], for which the Ki is, setting by setting: under setting [2], 0.441 µM; under setting [1], 0.276 µM. Consider `CSCC[C@H](NC(=O)NCc1ccco1)C(=O)N[C@@H](CC(C)C)[C@@H](O)C[C@@H](C)C(=O)N[C@H](C(=O)NCc1ccccc1)C(C)C` [MMI-115], for which the Vi/Vo is listed as 1.04. Under setting [2], the Ki worked out at 0.378 µM. Further, the Ki under setting [1] came out at 0.236 µM.

In the case of `CSCC[C@H](NC(=O)NCc1ccco1)C(=O)N[C@@H](CC(C)C)[C@@H](O)C[C@@H](C)C(=O)N[C@H](C(=O)NCc1ccccc1)C(C)C` [MMI-117], the Vi/Vo stood at 0.57. `CSCC[C@H](NC(=O)OCc1ccoc1)C(=O)N[C@@H](CC(C)C)[C@@H](O)C[C@@H](C)C(=O)N[C@H](C(=O)NCc1ccccc1)C(C)C` [MMI-118]: the Vi/Vo was found to be 0.48. Moreover, under setting [2], the Ki turned out to be 0.311 µM. Further, the Ki under setting [1] amounted to 0.194 µM.
